Key:
[1] = tested on: arachidonic acid-induced ear swelling; assay: Topical arachidonic acid-induced ear swelling model in mice (topical application); format: in vivo, mice (male ICR); details: 20 μL applied 30 min before and 15 min after arachidonic acid, measured at 90 minutes
Procedure: The test compounds, indomethacin (positive control), and vehicle were evaluated for anti-inflammatory activity in a topical arachidonic acid-induced ear swelling model in mice. Male ICR mice weighing 22±2 g were used and randomly divided. Arachidonic Acid (0.5 mg in 20 μl of acetone:ethanol/1:1) was applied topically to the anterior and posterior surfaces of the right ear of each mice. Test compounds and vehicle, as listed in Table 1 were similarly applied 30 minutes before and 15 minutes after arachidonic acid application. The thickness of the right ear and the left ear was measured and the difference calculated as an indication of the inflammation in the right ear. Ear swelling was measured by a Dyer model micrometer gauge at 60 and 90 minutes after arachidonic acid application as an index of inflammation. Percent inhibition was calculated according to the formula: Ic−It/Ic×100, where Ic and It refers to increase of ear thickness (mm) in control and treated mice, respectively. ANOVA and Dunnett's test were employed to ascertain significant difference between vehicle control and treated groups. Significance is set at P<0.05 level. The test compounds, indomethacin (positive control), and vehicle were evaluated for anti-inflammatory activity in a topical arachidonic acid-induced ear swelling model in mice. Male ICR mice weighing 22±2 g were used and randomly divided; the test compound and vehicle control had 10 mice, and indomethacin had 5 mice. Arachidonic Acid (0.5 mg in 20 μl of acetone:ethanol/1:1) was applied topically to the anterior and posterior surfaces of the right ear of each mouse. Test substances and vehicle, as listed in Table 4 were similarly applied 30 min before and 15 min after arachidonic acid application. The thickness of the right ear and the left ear was measured and the difference calculated as an indication of the inflammation in the right ear. Ear swelling was measured by a Dyer model micrometer gauge at 60 and 90 minutes after arachidonic acid application as an index of inflammation. Percent inhibition was calculated according to the formula: Ic−It/Ic×100, where Ic and It refers to increase of ear thickness (mm) in control and treated mice, respectively. ANOVA and Dunnett's test were employed to ascertain significant difference between vehicle control and treated groups. Significance is set at P<0.05 level.

[2] = tested on: arachidonic acid induced ear swelling; assay: Arachidonic acid induced ear swelling model in mice (oral administration); format: in vivo, mice (male ICR derived); details: for % Inhibition (ear swelling): Table 8, oral gavage, test compound 30 mg/kg 1 hour before, dexamethasone 0.3 mg/kg 3 hour before arachidonic acid, measured at 90 minutes
Procedure: 3-[(4-Methylphenyl)sulfonyl]propionitrile was suspended in vehicle (1% Tween 80 in water) to 3 mg/mL. The test compound, dexamethasone (positive control in vehicle), and vehicle were orally administered to mice and evaluated for anti-inflammatory activity in the topical arachidonic acid induced ear swelling model in mice.
Male ICR derived mice weighing 22±2 g were used in this experiment. 10 mice were used for each group (active compound, positive control, and vehicle). All animals were maintained in a controlled temperature (22-24° C.) and humidity (60%-70%) environment with 12-hour light/dark cycles for at least one week prior to use.
Arachidonic acid (0.5 mg in 20 μL acetone) was applied topically onto the anterior and posterior surfaces of the right ear of test animals to induce inflammation. Active compound in vehicle (10 mL/kg) and vehicle (10 mL/kg, […]) was orally administered by gavage 1 hour before arachidonic acid, whereas dexamethasone was orally administered by gavage 3 hour before arachidonic acid challenge. At 60 minutes and 90 minutes after arachidonic acid induction of ear edema, the thickness of the right ear and the left ear was measured and the difference calculated as an indication of the inflammation in the right ear.

[3] = Table 6, test compounds 375 mM, indomethacin 14 mM (0.5% w/v)
[4] = Table 7, test compounds 375 mM, indomethacin 14 mM

Structure (SMILES) | % Inhibition (ear swelling) [1, 3] [%] | % Inhibition (ear swelling) [1, 4] [%] | other results
COc1ccc2c(c1)c(CC(=O)O)c(C)n2C(=O)c1ccc(Cl)cc1 [Indomethacin, reference compound] | 57 | 58 | –
N#CCCS(=O)(=O)c1ccc(Cl)cc1 [3-[(4-chlorophenyl)sulfonyl]propionitrile] | 20 | – | –
COc1ccc(S(=O)(=O)CCC#N)cc1 [3-(4-methoxyphenyl)sulfonylpropionitrile] | – | 23 | –
N#CCCS(=O)(=O)c1ccc(Cl)c(Cl)c1 [3-(3,4-dichlorophenyl)sulfonylpropionitrile] | – | 28 | melting point: 137.7 to 140.2 °C
Cc1ccc(S(=O)(=O)CCC#N)cc1 [3-[(4-methylphenyl)sulfonyl]propionitrile] | 44 | – | % Inhibition (ear swelling) [2]: 16%; Inhibition in arachidonic acid induced ear swelling (in words) ([2]; oral administration, at 90 minutes): significant inhibition
N#CCCS(=O)(=O)c1ccccc1 [3-(phenylsulfonyl)propionitrile] | 36 | – | –
N#CCCS(=O)(=O)c1ccc2ccccc2c1 [3-(naphthalene-2-sulfonyl)propionitrile] | 25 | – | –
C[C@@H]1C[C@H]2[C@@H]3CCC4=CC(=O)C=C[C@]4(C)[C@@]3(F)[C@@H](O)C[C@]2(C)[C@@]1(O)C(=O)CO [Dexamethasone, reference compound] | – | – | % Inhibition (ear swelling) [2]: 36%
